Experimental data reported in PubChem BioAssay (NCI).
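Cells were grown in 96-well plates and exposed to each compound for 48 hours at five concentrations; endpoints were interpolated linearly between bracketing concentrations, or set to the highest concentration if not reached. Abbreviation: GI50, concentration required for 50% inhibition of growth. The concentration for full growth arrest is given as TGI.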

Legend:
Experiment in all cases: NCI-60 cell line screen, 48 h
786-0 renal = test system: 786-0 renal
A498 renal = test system: A498 renal
A549 NSCLC = test system: A549 NSCLC
ACHN renal = test system: ACHN renal
BT-549 breast = test system: BT-549 breast
CAKI-1 renal = test system: CAKI-1 renal
CCRF-CEM leukemia = test system: CCRF-CEM leukemia
COLO 205 colon = test system: COLO 205 colon
DU-145 prostate = test system: DU-145 prostate
HCC-2998 colon = test system: HCC-2998 colon
HCT-116 colon = test system: HCT-116 colon
HCT-15 colon = test system: HCT-15 colon
HL-60(TB) leukemia = test system: HL-60(TB) leukemia
HOP-62 NSCLC = test system: HOP-62 NSCLC
HOP-92 NSCLC = test system: HOP-92 NSCLC
HS 578T breast = test system: HS 578T breast
HT29 colon = test system: HT29 colon
IGROV1 ovarian = test system: IGROV1 ovarian
K-562 leukemia = test system: K-562 leukemia
KM12 colon = test system: KM12 colon
LOX IMVI melanoma = test system: LOX IMVI melanoma
M14 melanoma = test system: M14 melanoma
MALME-3M melanoma = test system: MALME-3M melanoma
MCF7 breast = test system: MCF7 breast
MDA-MB-231 breast = test system: MDA-MB-231 breast
MDA-MB-435 = test system: MDA-MB-435
MOLT-4 leukemia = test system: MOLT-4 leukemia
NCI-H226 lung = test system: NCI-H226 lung
NCI-H23 lung = test system: NCI-H23 lung
NCI-H460 lung = test system: NCI-H460 lung
NCI-H522 lung = test system: NCI-H522 lung
NCI/ADR-RES ovarian = test system: NCI/ADR-RES ovarian
OVCAR-3 ovarian = test system: OVCAR-3 ovarian
OVCAR-4 ovarian = test system: OVCAR-4 ovarian
OVCAR-5 ovarian = test system: OVCAR-5 ovarian
OVCAR-8 ovarian = test system: OVCAR-8 ovarian
PC-3 prostate = test system: PC-3 prostate
RPMI-8226 leukemia = test system: RPMI-8226 leukemia
RXF 393 renal = test system: RXF 393 renal
SF-268 CNS = test system: SF-268 CNS
SF-295 CNS = test system: SF-295 CNS
SF-539 CNS = test system: SF-539 CNS
SK-MEL-2 melanoma = test system: SK-MEL-2 melanoma
SK-MEL-28 melanoma = test system: SK-MEL-28 melanoma
SK-MEL-5 melanoma = test system: SK-MEL-5 melanoma
SK-OV-3 ovarian = test system: SK-OV-3 ovarian
SN12C renal = test system: SN12C renal
SNB-19 CNS = test system: SNB-19 CNS
SNB-75 CNS = test system: SNB-75 CNS
SR leukemia = test system: SR leukemia
SW-620 colon = test system: SW-620 colon
T-47D breast = test system: T-47D breast
TK-10 renal = test system: TK-10 renal
U251 CNS = test system: U251 CNS
UACC-257 melanoma = test system: UACC-257 melanoma
UACC-62 melanoma = test system: UACC-62 melanoma
UO-31 renal = test system: UO-31 renal

COc1ccc(-c2nsc3c2NC(=O)CC3c2ccc(F)cc2)cc1 (centres undefined)
GI50 (786-0 renal): 15.2 µM
TGI (786-0 renal): > 100 µM
GI50 (A498 renal): 2.37 µM
TGI (A498 renal): > 100 µM
GI50 (A549 NSCLC): 4.58 µM
TGI (A549 NSCLC): > 100 µM
GI50 (ACHN renal): 6.73 µM
TGI (ACHN renal): > 100 µM
GI50 (BT-549 breast): 7.72 µM
TGI (BT-549 breast): > 100 µM
GI50 (CAKI-1 renal): 2.28 µM
TGI (CAKI-1 renal): 18.4 µM
GI50 (CCRF-CEM leukemia): 5.27 µM
TGI (CCRF-CEM leukemia): > 100 µM
GI50 (COLO 205 colon): 2.49 µM
TGI (COLO 205 colon): 8.39 µM
GI50 (DU-145 prostate): 5.31 µM
TGI (DU-145 prostate): > 100 µM
GI50 (HCC-2998 colon): > 21.7 µM
TGI (HCC-2998 colon): > 100 µM
GI50 (HCT-116 colon): 3.95 µM
TGI (HCT-116 colon): > 100 µM
GI50 (HCT-15 colon): 2.16 µM
TGI (HCT-15 colon): > 100 µM
GI50 (HL-60(TB) leukemia): 0.598 µM
TGI (HL-60(TB) leukemia): > 21.1 µM
GI50 (HOP-62 NSCLC): 7.06 µM
TGI (HOP-62 NSCLC): 49 µM
GI50 (HOP-92 NSCLC): 1.77 µM
TGI (HOP-92 NSCLC): 23.7 µM
GI50 (HS 578T breast): 4.48 µM
TGI (HS 578T breast): > 73.8 µM
GI50 (HT29 colon): 2.84 µM
TGI (HT29 colon): 27.6 µM
GI50 (IGROV1 ovarian): 5.44 µM
TGI (IGROV1 ovarian): > 100 µM
GI50 (K-562 leukemia): 1.37 µM
TGI (K-562 leukemia): > 100 µM
GI50 (KM12 colon): 3.13 µM
TGI (KM12 colon): > 100 µM
GI50 (LOX IMVI melanoma): 7.18 µM
TGI (LOX IMVI melanoma): > 100 µM
GI50 (M14 melanoma): 3.74 µM
TGI (M14 melanoma): > 100 µM
GI50 (MALME-3M melanoma): 10.3 µM
TGI (MALME-3M melanoma): > 100 µM
GI50 (MCF7 breast): 3.29 µM
TGI (MCF7 breast): > 100 µM
GI50 (MDA-MB-231 breast): 6.68 µM
TGI (MDA-MB-231 breast): > 100 µM
GI50 (MDA-MB-435): 0.513 µM
TGI (MDA-MB-435): 2.43 µM
GI50 (MOLT-4 leukemia): 0.577 µM
TGI (MOLT-4 leukemia): > 100 µM
GI50 (NCI-H226 lung): 8.67 µM
TGI (NCI-H226 lung): > 100 µM
GI50 (NCI-H23 lung): 6.1 µM
TGI (NCI-H23 lung): > 100 µM
GI50 (NCI-H460 lung): 3.46 µM
TGI (NCI-H460 lung): > 100 µM
GI50 (NCI-H522 lung): 2.52 µM
TGI (NCI-H522 lung): 15.6 µM
GI50 (NCI/ADR-RES ovarian): 2.57 µM
TGI (NCI/ADR-RES ovarian): > 26.9 µM
GI50 (OVCAR-3 ovarian): 3.79 µM
TGI (OVCAR-3 ovarian): > 100 µM
GI50 (OVCAR-4 ovarian): 12.7 µM
TGI (OVCAR-4 ovarian): > 100 µM
GI50 (OVCAR-5 ovarian): 5.94 µM
TGI (OVCAR-5 ovarian): > 100 µM
GI50 (OVCAR-8 ovarian): 5.66 µM
TGI (OVCAR-8 ovarian): > 100 µM
GI50 (PC-3 prostate): 3.33 µM
TGI (PC-3 prostate): > 100 µM
GI50 (RPMI-8226 leukemia): 4.94 µM
TGI (RPMI-8226 leukemia): > 100 µM
GI50 (RXF 393 renal): 5.91 µM
TGI (RXF 393 renal): > 77.5 µM
GI50 (SF-268 CNS): 10.2 µM
TGI (SF-268 CNS): > 100 µM
GI50 (SF-295 CNS): 4.08 µM
TGI (SF-295 CNS): > 29.1 µM
GI50 (SF-539 CNS): 3.56 µM
TGI (SF-539 CNS): 67.8 µM
GI50 (SK-MEL-2 melanoma): 3.22 µM
TGI (SK-MEL-2 melanoma): 12 µM
GI50 (SK-MEL-28 melanoma): 4.74 µM
TGI (SK-MEL-28 melanoma): > 100 µM
GI50 (SK-MEL-5 melanoma): 3.22 µM
TGI (SK-MEL-5 melanoma): > 100 µM
GI50 (SK-OV-3 ovarian): 4.59 µM
TGI (SK-OV-3 ovarian): > 100 µM
GI50 (SN12C renal): > 23.4 µM
TGI (SN12C renal): > 100 µM
GI50 (SNB-19 CNS): 7.75 µM
TGI (SNB-19 CNS): > 100 µM
GI50 (SNB-75 CNS): 2.35 µM
TGI (SNB-75 CNS): 15.7 µM
GI50 (SR leukemia): 1.1 µM
TGI (SR leukemia): > 100 µM
GI50 (SW-620 colon): 2.77 µM
TGI (SW-620 colon): > 100 µM
GI50 (T-47D breast): 4.64 µM
TGI (T-47D breast): > 100 µM
GI50 (TK-10 renal): 6.88 µM
TGI (TK-10 renal): > 100 µM
GI50 (U251 CNS): 4 µM
TGI (U251 CNS): > 100 µM
GI50 (UACC-257 melanoma): 16.6 µM
TGI (UACC-257 melanoma): > 100 µM
GI50 (UACC-62 melanoma): 4.66 µM
TGI (UACC-62 melanoma): > 100 µM
GI50 (UO-31 renal): 4.59 µM
TGI (UO-31 renal): > 100 µM
